Like-named read-outs stand apart in the source and are kept apart here.
Key:
foot tapping in gerbils = experiment: Gerbil Foot-Tapping Assay (induced by central injection of an NK1 agonist); assay type: in vivo, Mongolian gerbils; conditions: Meriones unguiculatus, iv
Text: Gerbil Foot-Tapping Assay CNS penetrant NK-1 receptor antagonists for use in the resent invention can be identified by their ability to inhibit foot tapping in gerbils induced by anxiogenic agents (such as pentagastrin) or central infusion of NK-1 receptor agonists such as GR-73632, or caused by aversive stimulation such as foot shock or single housing, based on the method of Rupniak & Williams, Eur. J. Pharmacol., 1994, 265, 179. Male or female Mongolian gerbils (35-70 g) are anaesthetised by inhalation of an isoflurane/oxygen mixture to permit exposure of the jugular vein in order to permit administration of test compounds or vehicle in an injection volume of 5 ml/kg i.v. Alternatively, test compounds may be administered orally or by subcutaneous or intraperitoneal routes. The wound is closed and a second skin incision is made in the midline of the scalp to expose the skull. […] The duration and/or intensity of hind foot tapping is then recorded continuously for 5 minutes. Alternatively, the ability of test compounds to inhibit foot tapping evoked by aversive stimulation, such as foot shock or single housing, may be studied using a similar method of quantification.

[1] = tested on: cisplatin-induced emesis in ferrets; experiment: Ferret Emesis Assay (cisplatin-induced emesis); assay type: in vivo; conditions: Mustela putorius, po; cisplatin 10 mg/kg i.v.; 4 hours observation; read-out: ferret emesis ID90
Description: Individually housed male ferrets (1.0-2.5 kg) are dosed orally by gavage with test compound. Ten minutes later they are fed with approximately 100 g of tinned cat food. At 60 minutes following oral dosing, cisplatin (10 mg/kg) is given i.v. via a jugular vein catheter inserted under a brief period of halothane anaesthesia. The catheter is then removed, the jugular vein ligated and the skin incision closed. The ferrets recover rapidly from the anaesthetic and are mobile within 10-20 minutes. The animals are observed continuously during recovery from the anaesthetic and for 4 hours following the cisplatin injection, after which time the animals are killed humanely. The numbers of retches and vomits occurring during the 4 hours after cisplatin administration are recorded by trained observers.

[2] = tested on: distress vocalisations in guinea-pig pups; experiment: Separation-Induced Vocalisation Assay; assay type: in vivo, guinea-pigs; conditions: Cavia porcellus, po; 4 hr. pre-treatment; read-out: guinea-pig vocalisation (4 hr. pre-treatment) ID50
Text: Separation-Induced Vocalisation Assay Male and female guinea-pigs pups are housed in family groups with their mothers and littermates throughout the study. Experiments are commenced […] when the pups are 2 weeks old. Before entering an experiment, the pups are screened to ensure that a vigorous vocalisation response is reproducibly elicited following maternal separation. The pups are placed individually in an observation cage (55 cm×39 cm×19 cm) in a room physically isolated from the home cage for 15 minutes and the duration of vocalisation during this baseline period is recorded. Only animals which vocalise for longer than 5 minutes are employed for drug challenge studies (approximately 50% of available pups may fail to reach this criterion). On test days each pup receives an oral dose or a s.c. or i.p. injection of test compound or vehicle and is then immediately returned to the home cage with its mother and siblings for 30 minutes to 60 minutes (or for up to 4 hours following an oral dose, dependant upon the oral pharmacokinetics of the test compound) before social isolation for 15 minutes as described above. The duration of vocalisation on drug treatment days is expressed as a percentage of the pre-treatment baseline value for each animal. The same subjects are retested once weekly for up to 6 weeks. Between 6 and 8 animals receive each test compound at each dose tested. […]

What does the source list for `C[C@@H](O[C@H]1OCCN(Cc2n[nH]c(=O)[nH]2)[C@H]1c1ccc(F)cc1)c1cc(C(F)(F)F)cc(C(F)(F)F)c1` [2-(R)-(1-(R)-(3,5-bis(trifluoromethyl)-phenyl)-ethoxy)-3-(S)-(4-fluorophenyl)-4-(3-(5-oxo-1H,4H-1,2,4-triazolo)methyl)-morpholine]?
ED50 (foot tapping in gerbils; 5 min, i.v., 5 mins., read-out: gerbil foot-tapping (5 mins.) ID50): 0.36 mg/kg; ED50 (foot tapping in gerbils; 24 hrs. prior to central NK1 agonist challenge, read-out: gerbil foot-tapping (24 hrs.) ID50): 0.33 mg/kg; ED90 [1]: < 3 mg/kg; ED50 [2]: 0.73 mg/kg

— patent US6242446A, “Method for treating attention deficit disorder” (Merck & Co., Inc., priority 2000, dated 2001)
